One assay has as its system platelets. The assay can be described thus: Anti-platelet antibody R300-induced platelet clearance (ITP mouse model). The assay is classed as in vivo, ICR mice. The conditions noted are these: for platelet counts versus NS group at 30 min: injection 10 min before R300 (0.1 μg/g), PGE2 20 ng/ml, cAMP 12 μg/ml, P<0.05.
Assay [1] has as its system washed platelets. Description: Fasudil platelet apoptosis (ΔΨm and PS exposure) with thrombin. To be noted: 10 min room temperature, then thrombin 0.1 U/ml 30 min 37° C. The assay is classed as cell-based, human. Here is the method: Washed platelets (3×10^8/mL) were incubated with different Fasudil or negative control (normal saline) for 10 min at room temperature. Thereafter, except the negative control, thrombin (0.1 U/ml) was added to each group, and incubation was carried out for 30 min at 37° C. Platelet ΔΨm was measured using the lipophilic cationic dye JC-1. JC-1 with a final concentration of 2 μg/ml was added to the treated platelets, and the platelets were incubated at 37° C. for 5 min in the dark, and detected by using the flow cytometer. […] The JC-1 monomer (λex 514 nm, λem 529 nm) and the polymer (λex 585 nm, λem 590 nm) were determined by calculating the proportion of flow red fluorescence (JC-1 polymer) or green fluorescence (JC-1 monomer) (FIG. 22).
Washed platelets (3×10^8/mL) were incubated with different Fasudil or negative control (normal saline) for 10 min at room temperature. Thereafter, except the negative control, thrombin (0.1 U/ml) was added to each group, and incubation was carried out for 30 min at 37° C. After that, Annexin V buffer, treated platelets, and Annexin V-FITC in a ratio of 50:10:1 were incubated for 15 min at room temperature in the dark, and detected by using the flow cytometer (FIG. 22).

Another assay relates to BAD position 155. The assay can be described thus: Western blot / co-immunoprecipitation of BAD Ser155 phosphorylation and Bel-xL in platelets. In kind it is cell-based, human. The conditions noted are these: 37.5 uM H89 or 10 uM forskin, 160 min. Here is the method: Next, we further explored the mechanism by which PKA inhibits induction of platelet apoptosis. At room temperature, 3×10^8/mL washed platelets were incubated with different concentration gradients of H89 or the DMSO internal reference for 160 min. The platelets were lysed on ice for 30 min with an equal volume of lysis buffer. The product was electrophoretically separated by SDS-PAGE to obtain protein fragments of different sizes. The protein fragments were blocked in skim milk powder for one hour and then the primary antibody was added for incubation. […] The washed platelets were pretreated with 37.5 uM H89, 10 uM forskin and the DMSO internal reference respectively for 160 min at room temperature. Cytoplasmic proteins (FIG. 8B) and mitochondrial proteins (FIG. 8D) were extracted from the platelets, respectively. The interest proteins were detected by western blot. The amount of the interest proteins was analyzed by Image J software. Four experiments were counted to show the results in mean±standard deviation. After lysis, the pre-treated platelets were centrifuged at 17,000 g for 10 min at 4° C. The obtained supernatant was incubated with the corresponding antibody for precipitation overnight, and after incubation with protein A/G+ agarose beads at 4° C. for 2 hours, the beads were eluted for protein hybridization (FIG. 8C).
(In general: A western blot detects proteins with antibodies after separation by electrophoresis.)

The next assay deals with stored platelets. The assay can be described thus: Clearance of stored platelets in the body. To be noted: in vivo. The source says: In addition to apoptosis, there are other changes in storage damage that result in the clearance of stored platelets in the body. Therefore, we investigated whether PKA activation protects platelet from apoptosis while preventing the stored platelets from being cleared.

The test system of assay [2] is washed platelets. Description: Scanning electron microscopy of platelet morphology. The conditions noted are these: 22° C., 160 min. In kind it is cell-based, human. As for the experimental part:
The washed platelets were fixed with 2.5% […] at 4° C. overnight. The washed platelets were sent to a scanning electron microscope sample room for sample preparation. Morphological analysis of the platelets was carried out by the scanning electron microscope (Japan Hitachi, 5-4700). Five different fields of view were selected for observation and photographing.
(§1) Different concentrations of H89 (0, 12.5, 25, 37.5, and 50 μM) were applied to washed platelets at 22° C. for 160 min, and mitochondrial transmembrane potential depolarization and PS exposure of platelets were detected by using the flow cytometer. The experiments were repeated four times. The washed platelets were pretreated with different concentrations of H89 at 22° C. for 30 min. At the same time, DMSO and A23187 treated negative control group and positive control group platelets were established. Caspase-3, gelsolin protein expression and caspase-3 activity in platelets were detected by Western blot. The FITC-labeled anti-CD41 antibody was mixed with the pre-treated platelets at a ratio of 1:10, and incubated at room temperature for 10 min in the dark. Analyzing the platelet size scatter plot, the decrease in the CD41 positive cell count represents a decrease in the platelet count. […]

Assay [3] deals with washed platelets. The assay can be described thus: Platelet shrinkage experiment (FSC of GPIIb/IIIa positive platelets). The assay is classed as cell-based, human. Here is the method:
Washed platelets were incubated with different concentrations of H89 (12.5 μM, 25 μM, 37.5 μM and 50 μM) or negative control (DMSO) at room temperature for 10 min. The platelets and the SZ21 antibody were then incubated for 30 min at room temperature. The platelets were centrifuged, resuspended with the FITC-labeled goat-anti-mouse antibody, and incubated for 30 min at room temperature in the dark. The platelets were collected by using a flow cytometer, and platelet scatter plots collected by FSC-FL1 were used to analyze the platelets. The degree of shrinkage of the platelets was evaluated by analyzing the change in FSC and evaluating the degree of FSC reduction in GPIIb/IIIa positive cells. A23187 was used as a positive control. DMSO was used as a negative control.
as §1, with “blot.” for “blot. The FITC-labeled anti-CD41 antibody was mixed with the pre-treated platelets at a ratio of 1:10, and incubated at room temperature for 10 min in the dark. Analyzing the platelet size scatter plot, the decrease in the CD41 positive cell count represents a decrease in the platelet count.”

Assay [4] deals with washed platelets. Description: Mitochondrial membrane potential (ΔΨm) detection with JC-1 by flow cytometer. The assay is classed as cell-based, human. Here is the method: When washed platelets were prepared, venous blood from healthy volunteers was anticoagulated with ACD (2.5% sodium citrate, 2.0% glucose, and 1.5% citric acid) at 1:7, platelet-rich plasma (PRP) was obtained by centrifugation at 1300 rpm for 20 min, the PRP was centrifuged at 1500 g for 2 min, and the supernatant was discarded. The precipitated platelets were suspended, centrifuged and washed with CGS buffer (0.123 M sodium chloride, 0.033 M glucose, 0.013 M sodium citrate, pH 6.5). […] The platelets were counted by a counter. […]
Washed platelets (3×10^8/mL) were incubated with different concentrations of H89 (12.5 μM, 25 μM, 37.5 μM and 50 μM) or negative control (DMSO) for 10 min at room temperature, and then platelet ΔΨm was determined using the lipophilic cationic dye JC-1. JC-1 with a final concentration of 2 μg/ml was added to the treated platelets, and the platelets were incubated at 37° C. for 20 min in the dark, and detected by using a flow cytometer. […] The JC-1 monomer (λex 514 nm, λem 529 nm) and the polymer (λex 585 nm, λem 590 nm) were determined by calculating the proportion of flow red fluorescence (JC-1 polymer) or green fluorescence (JC-1 monomer). […]
(Flow cytometry measures light scatter and fluorescence of single cells or particles in a stream.)

The test system of another assay is caspase-3. The assay can be described thus: Western blot of caspase-3, gelsolin and caspase-3 activity in platelets. The assay is classed as cell-based, human. To be noted: different concentrations of H89, 22° C., 30 min. Here is the method:
Washed platelets were incubated with different concentrations of H89 (25 μM, 50 μM, and 100 μM) or negative control (DMSO) at room temperature for 10 min. The reaction was stopped by the addition of 2× cell lysis buffer (containing 2 mM PMSF, 2 mM NaF, 2 mM Na3VO4, and protease inhibitor), and the platelets were lysed on ice, and sampled. The samples were tested for expression of the corresponding proteins by Western blotting.
as §1

Take `Cn1c(=O)c2[nH]cnc2n(C)c1=O` [Aminophylline, aminophylline]: the “platelet clearance in vivo” value in the assay with platelets (aminophylline 0.24 mmol/L, R300 0.1 μg/g after 10 min) is listed as “can Inhibit”.
Consider `O=S(=O)(c1cccc2cnccc12)N1CCCNCC1` [Fasudil], for which the platelet apoptosis result in the assay on washed platelets [1] is “can Promote”.
Take `O=S(=O)(NCCNCC=Cc1ccc(Br)cc1)c1cccc2cnccc12` [H89, N-[2-((p-bromocinnamyl)amino)ethyl]-5-isoquinoline sulfonamide]: in the assay on BAD position 155, the “Bel-xL protein on the mitochondrial membrane” value is on record as “decrease”; the “co-immunoprecipitation of Bel-xL and BAD” value is on record as “significantly reduced”. Moreover, the “phosphorylation of serine at the BAD position 155” value in the assay with BAD position 155 (room temperature) was “decreased”. Also, the “clearance of stored platelets by the body” value in the assay on stored platelets is “speeds up the clearance”. Also, in the assay on washed platelets [2], the “typical apoptotic morphological changes (membrane vesicles, pseudopods, shrinkage, degranulation)” value was “dose-dependently induce”. Further, in the assay with washed platelets [3], the “forward scatter (FSC) of GPIIb/IIIa-positive platelets (shrinkage)” value is “decrease”. Besides, the “ΔΨm depolarization in platelets, time dependence” value in the assay on washed platelets [4] is “in a time-dependent manner”. Besides, the “mitochondrial membrane potential (ΔΨm) depolarization in platelets, dose dependence” value with washed platelets [4] (H89 0, 12.5, 25, 37.5, 50 μM, 22° C., 160 min) is given as “dose-dependently induced”. For the same compound, in the assay on caspase-3, the “activation of caspase-3” value is given as “dose-dependently induced” and the “digestion of caspase-3 substrate gelsolin” value is “dose-dependently induced”.
`CCCCC[C@H](O)/C=C/[C@H]1[C@H](O)CC(=O)[C@@H]1C/C=C\CCCC(=O)O` [PGE2, prostaglandin E2]: the “platelet counts versus NS group at 30 min” value in the assay with platelets was “has statistic difference”.
Turning to `Nc1ncnc2c1ncn2[C@@H]1O[C@@H]2COP(=O)(O)O[C@H]2[C@H]1O` [cAMP, cyclic adenosine monophosphate], the “platelet counts versus NS group at 30 min” value in the assay on platelets is listed as “has statistic difference”.
`Cc1[nH]c(=O)c(C#N)cc1-c1ccncc1` [milrinone]: the “platelet counts in peripheral blood of mice” value with platelets (milrinone 1 mg/kg tail vein, R300 0.1 mg/kg i.p. after 10 min, vs NS) is “significantly increased”.
